Results taken from ChEMBL document CHEMBL2203238, “Hit to Lead optimization of a novel class of squarate-containing polo-like kinases inhibitors” (Bioorg Med Chem Lett, 2012).
pKi: −log10 of the molar value. Activity calls are given as the source filed them. No cut-off for these calls is given here.

System: not listed separately
Assay: Oral bioavailability in mouse
Format: ADME, organism-based
Conditions: in vivo

Row | Compound | bioavailability
1 | C[C@@H](Nc1c(Nc2ccncc2)c(=O)c1=O)C(C)(C)C | 54%

Biological target: Serine/threonine-protein kinase PLK1 (Homo sapiens, UniProt P53350)
Assay: Inhibition of recombinant GST-tagged PLK1 using biotin-ahx-AKMETTFYDDALNASFLPSEKKK-amide as substrate after 30 mins by scintillation counting analysis in presence of gamma-[33P]ATP
Conditions: not given

Sequence of Serine/threonine-protein kinase PLK1 (P53350 whole entry): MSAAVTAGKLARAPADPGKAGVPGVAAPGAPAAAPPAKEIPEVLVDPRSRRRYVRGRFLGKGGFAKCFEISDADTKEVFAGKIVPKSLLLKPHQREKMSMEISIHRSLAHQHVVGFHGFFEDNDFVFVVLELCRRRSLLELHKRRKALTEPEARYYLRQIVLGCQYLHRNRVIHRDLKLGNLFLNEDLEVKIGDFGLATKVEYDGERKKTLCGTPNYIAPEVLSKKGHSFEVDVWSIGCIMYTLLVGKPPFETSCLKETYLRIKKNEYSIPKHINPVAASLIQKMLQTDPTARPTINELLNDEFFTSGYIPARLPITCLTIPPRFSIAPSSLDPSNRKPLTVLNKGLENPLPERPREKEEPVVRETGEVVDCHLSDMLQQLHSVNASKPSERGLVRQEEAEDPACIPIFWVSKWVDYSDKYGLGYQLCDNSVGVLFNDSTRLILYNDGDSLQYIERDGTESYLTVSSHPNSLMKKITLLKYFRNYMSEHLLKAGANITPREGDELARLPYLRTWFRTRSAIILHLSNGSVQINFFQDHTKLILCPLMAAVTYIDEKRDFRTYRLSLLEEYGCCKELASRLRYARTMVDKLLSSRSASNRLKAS

Row | Compound | pKi
2 | COc1cc(Nc2ncc(C#N)c(Nc3c(N[C@H](C)C(C)(C)C)c(=O)c3=O)n2)cc(OC)c1OC | 5.11
3 | CC(C)(C)Nc1c(Nc2ccnc(Nc3ccc(-c4cccnc4)cc3)n2)c(=O)c1=O | 7.55
4 | O=c1c(NCCN2CCOCC2)c(Nc2ccnc(Nc3ccc(-c4ccccc4)cc3)n2)c1=O | 5.07
5 | CC(C)(C)Nc1c(Nc2ccnc(Nc3ccc4c(c3)[nH]c3ccccc34)n2)c(=O)c1=O | 8.00
6 | CC(C)(C)Nc1c(Nc2ccnc(Nc3ccc(-c4cn[nH]c4)cc3)n2)c(=O)c1=O | 8.00
7 | C[C@@H](Nc1c(Nc2ccnc(Nc3ccncc3)n2)c(=O)c1=O)C(C)(C)C | < 4.36
8 | O=c1c(Nc2ccc(OC(F)(F)F)cc2)c(Nc2ccnc(Nc3ccc(-c4ccccc4)cc3)n2)c1=O | 4.75
9 | C[C@@H](Nc1c(Nc2ccccc2)c(=O)c1=O)C(C)(C)C | 4.49
10 | C[C@@H](Nc1c(Nc2cccnc2)c(=O)c1=O)C(C)(C)C | < 4.36
11 | CC(C)(C)Nc1c(Nc2ccnc(Nc3ccc4c(c3)Cc3ccccc3-4)n2)c(=O)c1=O | 8.40
12 | COc1ccc(Nc2nccc(Nc3c(N[C@H](C)C(C)(C)C)c(=O)c3=O)n2)c(OC)c1 | 6.11
13 | C[C@@H](Nc1c(Nc2ccnc(Nc3ccc(Cl)cc3)n2)c(=O)c1=O)C(C)(C)C | 6.57
14 | CC(C)(C)Nc1c(Nc2ccnc(Nc3ccc4ncsc4c3)n2)c(=O)c1=O | 7.37
15 | CC(=O)N1CCc2cc(Nc3nccc(Nc4c(NC(C)(C)C)c(=O)c4=O)n3)ccc21 | 7.70
16 | CC(C)C(C)Nc1c(Nc2ccnc(Nc3ccc(-c4ccccc4)cc3)n2)c(=O)c1=O (centres undefined) | 6.78
17 | CC(C)(C)Nc1c(Nc2nc(Nc3ccc4c(c3)Cc3ccccc3-4)ncc2F)c(=O)c1=O | < 5.06
18 | C[C@@H](Nc1c(Nc2ccnc(Nc3cccnc3)n2)c(=O)c1=O)C(C)(C)C | < 4.36
19 | C[C@@H](Nc1c(Nc2ccnc(Nc3ccc4c(c3)OCCO4)n2)c(=O)c1=O)C(C)(C)C | 6.59
20 | COc1ccc(Nc2nccc(Nc3c(N[C@H](C)C(C)(C)C)c(=O)c3=O)n2)cc1 | 6.85
21 | C[C@H](Nc1c(Nc2ccnc(Nc3ccc(-c4ccccc4)cc3)n2)c(=O)c1=O)C(C)(C)C | 7.33
22 | COc1cc(Nc2nccc(Nc3c(N[C@H](C)C(C)(C)C)c(=O)c3=O)n2)cc(OC)c1OC | 6.63
23 | C[C@@H](Nc1c(Nc2ccnc(Nc3ccc(OC(F)(F)F)cc3)n2)c(=O)c1=O)C(C)(C)C | 6.21
24 | C[C@@H](Nc1c(Nc2ccnc(Nc3ccc4ccccc4c3)n2)c(=O)c1=O)C(C)(C)C | 7.07

Row | Compound | pKi
25 | CC(C)(C)Nc1c(Nc2ccnc(Nc3ccc(N4CCOCC4)cc3)n2)c(=O)c1=O | 6.76
26 | CC(C)(C)Nc1c(Nc2ccnc(Nc3ccc(-c4csnn4)cc3)n2)c(=O)c1=O | 7.82
27 | O=c1c(NCC2CC2)c(Nc2ccnc(Nc3ccc(-c4ccccc4)cc3)n2)c1=O | 4.85
28 | C[C@@H](Nc1c(Nc2ccnc(Nc3cccc(-c4ccccc4)c3)n2)c(=O)c1=O)C(C)(C)C | 6.48
29 | CC(C)CC(C)Nc1c(Nc2ccnc(Nc3ccc(-c4ccccc4)cc3)n2)c(=O)c1=O (centres undefined) | 5.93
30 | C[C@@H](Nc1c(Nc2ccnc(Nc3ccc(-c4ccccc4)cc3)n2)c(=O)c1=O)C(C)(C)C | 7.12
31 | CC(C)(C)Nc1c(Nc2ccnc(Nc3ccc4c(c3)CCO4)n2)c(=O)c1=O | 7.66
32 | C[C@@H](Nc1c(Nc2ccnc(Nc3ccc4c(c3)OCO4)n2)c(=O)c1=O)C(C)(C)C | 6.78
33 | C[C@@H](Nc1c(Nc2ccnc(Nc3ccc(F)cc3)n2)c(=O)c1=O)C(C)(C)C | 6.63
34 | CCC(C)(C)Nc1c(Nc2ccnc(Nc3ccc(-c4ccccc4)cc3)n2)c(=O)c1=O | 7.89
35 | CC(C)(C)Nc1c(Nc2ccnc(Nc3ccc(-c4ccccc4)cc3)n2)c(=O)c1=O | 7.85
36 | CC(Nc1c(Nc2ccnc(Nc3ccc(-c4ccccc4)cc3)n2)c(=O)c1=O)c1ccccc1 (centres undefined) | 4.60
37 | C[C@@H](Nc1c(Nc2ccnc(Nc3ccccc3)n2)c(=O)c1=O)C(C)(C)C | 6.33
38 | C[C@@H](Nc1c(Nc2ccnc(Nc3ccccn3)n2)c(=O)c1=O)C(C)(C)C | 4.39
39 | C[C@@H](Nc1c(Nc2ccnc(Nc3cccc4ccccc34)n2)c(=O)c1=O)C(C)(C)C | 6.50
40 | CC(C)(C)CNc1c(Nc2ccnc(Nc3ccc(-c4ccccc4)cc3)n2)c(=O)c1=O | 5.74
41 | C[C@@H](Nc1nccc(Nc2c(N[C@H](C)C(C)(C)C)c(=O)c2=O)n1)c1ccccc1 | 5.00
42 | Cc1ccc(Nc2nccc(Nc3c(N[C@H](C)C(C)(C)C)c(=O)c3=O)n2)cc1 | 6.00
43 | C[C@@H](Nc1c(Nc2ccnc(Nc3ccc(Oc4ccccc4)cc3)n2)c(=O)c1=O)C(C)(C)C | 6.56
44 | CC(C)(C)Nc1c(Nc2ccnc(Nc3ccc4[nH]ncc4c3)n2)c(=O)c1=O | 7.77
45 | CC(C)(C)Nc1c(Nc2ccnc(Nc3ccc(-c4ccccn4)cc3)n2)c(=O)c1=O | 7.09
46 | C[C@@H](Nc1c(Nc2ccnc(Nc3ccc4c(c3)Cc3ccccc3-4)n2)c(=O)c1=O)C(C)(C)C | 7.39
47 | C[C@@H](Nc1c(Nc2ccnc(Nc3ccc(Br)cc3)n2)c(=O)c1=O)C(C)(C)C | 6.45

System: MIA PaCa-2
Assay: Antitumor activity against human MIAPaCa2 cells xenografted in SCID mouse assessed as tumor growth inhibition at 120 mg/kg/day, ip measured on day 21 to day 44 relative to vehicle-treated control
Format: functional, organism-based
Conditions: not given

Row | Compound | TGI
48 | Nc1ccn([C@@H]2O[C@H](CO)[C@@H](O)C2(F)F)c(=O)n1 | Active

System: not listed separately
Assay: Half life in mouse
Format: ADME, organism-based
Conditions: in vivo

Row | Compound | half-life
49 | C[C@@H](Nc1c(Nc2ccncc2)c(=O)c1=O)C(C)(C)C | 23.4 min
